Starred links: 1 amine or outer side, 2 acyl side, 3 side chain; linkers in the order of their positions; H or OH if unused. Positions of bridges follow the written chain, without caps; N, C: chain ends. Non-standard residues stand in square brackets, D forms with d. Residues, ends and D or L forms follow the SMILES beside them. Trimesoyl = O=C(c1cc(C(=O)[*:2])cc(C(=O)[*:3])c1)[*:1]; Phe(3,4-F2) = N[C@@H](Cc1ccc(F)c(F)c1)C(=O)O; Phe(4-Br) = N[C@@H](Cc1ccc(Br)cc1)C(=O)O; Phe(4-Cl) = N[C@@H](Cc1ccc(Cl)cc1)C(=O)O; Phe(4-F) = N[C@@H](Cc1ccc(F)cc1)C(=O)O; 2Nal = N[C@@H](Cc1ccc2ccccc2c1)C(=O)O; Pip = O=C(O)[C@@H]1CCCCN1; Dap = NC[C@H](N)C(=O)O; βAla = NCCC(=O)O; Sar = CNCC(=O)O

The Kd is the equilibrium constant for the complex coming apart.

The test has as its target T1, Pin1 (Homo sapiens, UniProt Q13526, S16A/Y23A).
T1 construct: The full-length human S16A/Y23A mutant Pin1 was expressed and purified from E. coli; made in house
As to the kind of experiment: Pin1 binding by FA (FITC-labeled peptides). The following applies: for Kd: FITC-labeled peptide, FA, read-out: KD.

Description: FA experiments were carried out by incubating 100 nM FITC-labeled peptide with varying concentrations of protein in 20 mM HEPES (pH 7.4), 150 mM NaCl, 2 mM magnesium acetate, and 0.1% bovine serum albumin (BSA) for 2 h at room temperature. The FA values were measured on a Molecular Devices Spectramax M5 plate reader, with excitation and emission wavelengths at 485 and 525 nm, respectively. Equilibrium dissociation constants (KD) were determined by plotting the FA values as a function of protein concentration and fitting the curve to the following equation:

As for `CN1CC(=O)N[C@H](CC(=O)O)C(=O)N2CCCC[C@H]2C(=O)N[C@@H](Cc2ccc3ccccc3c2)C(=O)N[C@@H](CCCNC(=N)N)C(=O)N[C@@H](CCCNC(=N)N)C(=O)N[C@H](Cc2ccccc2)C(=O)N[C@H]2CNC(=O)c3cc(cc(c3)C(=O)N3CCC[C@H]3C1=O)C(=O)NC[C@@H](C(=O)N[C@@H](CCCCN)C(N)=O)NC(=O)[C@H](CCCNC(=N)N)NC(=O)[C@H](CCCNC(=N)N)NC(=O)[C@H](CCCNC(=N)N)NC(=O)[C@H](CCCNC(=N)N)NC(=O)[C@H](Cc1ccc3ccccc3c1)NC(=O)[C@H](Cc1ccccc1)NC2=O` [Peptide 22, bicyclo[Tm-(Pro-Sar-D-Asp-Pip-Nal-Arg-Arg-D-Phe)-Dap-(Phe-Nal-Arg-Arg-Arg-Arg-Dap)]-Lys] (P[Sar][dD][Pip][2Nal]RR[dF][Dap]F[2Nal]RRRR[Dap]K-NH2; linker N-9-16 via Trimesoyl; C-terminus assumed), the Kd is 480 nM. Moreover, the “Improvement of Pin1 binding by D-Phe for D-Ala vs parent peptide” value (peptide 22 vs 3, peptide 27 vs 4) was roughly 2 fold.
“bicyclo[Tm-(D-4-Phe-Fpa-D-Nle-Pip-Nal-Arg-Ala-D-Phe)-Dap-(Phe-Nal-Arg-Arg-Arg-Arg-Dap)]-Lys [Peptide 40]”: the dissociation constant Kd was 710 ± 120 nM.
As for `C[C@@H]1NC(=O)[C@H](CCCNC(=N)N)NC(=O)[C@H](Cc2ccc3ccccc3c2)NC(=O)[C@@H]2CCCCN2C(=O)[C@@H]([C@H](C)O)NC(=O)[C@H](Cc2ccc(Cl)cc2)NC(=O)[C@@H](Cc2ccccc2)NC(=O)c2cc3cc(c2)C(=O)NC[C@H](NC(=O)[C@@H](Cc2ccccc2)NC1=O)C(=O)N[C@@H](Cc1ccccc1)C(=O)N[C@@H](Cc1ccc2ccccc2c1)C(=O)N[C@@H](CCCNC(=N)N)C(=O)N[C@@H](CCCNC(=N)N)C(=O)N[C@@H](CCCNC(=N)N)C(=O)N[C@@H](CCCNC(=N)N)C(=O)N[C@H](C(=O)N[C@@H](CCCCN)C(N)=O)CNC3=O` [Peptide 30, bicyclo[Tm-(D-Phe-4-ClPhe-D-Thr-Pip-Nal-Arg-Ala-D-Phe)-Dap-(Phe-Nal-Arg-Arg-Arg-Arg-Dap)]-Lys] ([dF][Phe(4-Cl)][dT][Pip][2Nal]RA[dF][Dap]F[2Nal]RRRR[Dap]K-NH2; linker N-9-16 via Trimesoyl; C-terminus assumed), the Kd came out at 780 ± 50 nM.
Same read-out and setting: next, `C[C@H]1NC(=O)CCNC(=O)[C@H](CCCNC(=N)N)NC(=O)[C@H](Cc2ccc3ccccc3c2)NC(=O)[C@@H]2CCCCN2C(=O)[C@@H](CC(=O)O)NC(=O)CN(C)C(=O)[C@@H]2CCCN2C(=O)c2cc3cc(c2)C(=O)NC[C@H](NC1=O)C(=O)N[C@@H](Cc1ccccc1)C(=O)N[C@@H](Cc1ccc2ccccc2c1)C(=O)N[C@@H](CCCNC(=N)N)C(=O)N[C@@H](CCCNC(=N)N)C(=O)N[C@@H](CCCNC(=N)N)C(=O)N[C@@H](CCCNC(=N)N)C(=O)N[C@H](C(=O)N[C@@H](CCCCN)C(N)=O)CNC3=O` [Peptide 14, bicyclo[Tm-(Pro-Sar-D-Asp-Pip-Nal-Arg-β-Ala-D-Ala)-Dap-(Phe-Nal-Arg-Arg-Arg-Arg-Dap)]-Lys] (P[Sar][dD][Pip][2Nal]R[βAla][dA][Dap]F[2Nal]RRRR[Dap]K-NH2; linker N-9-16 via Trimesoyl; C-terminus assumed): 1750 ± 180 nM; `C[C@H]1NC(=O)[C@H](CCCNC(=N)N)NC(=O)[C@H](CCCNC(=N)N)NC(=O)[C@H](Cc2ccc3ccccc3c2)NC(=O)[C@@H]2CCCCN2C(=O)[C@@H](CC(=O)O)NC(=O)CN(C)C(=O)[C@@H]2CCCN2C(=O)c2cc3cc(c2)C(=O)NC[C@H](NC1=O)C(=O)N[C@@H](Cc1ccccc1)C(=O)N[C@@H](Cc1ccc2ccccc2c1)C(=O)N[C@@H](CCCNC(=N)N)C(=O)N[C@@H](CCCNC(=N)N)C(=O)N[C@@H](CCCNC(=N)N)C(=O)N[C@@H](CCCNC(=N)N)C(=O)N[C@H](C(=O)N[C@@H](CCCCN)C(N)=O)CNC3=O` [Peptide 19, bicyclo[Tm-(Pro-Sar-D-Asp-Pip-Nal-Arg-Arg-D-Ala)-Dap-(Phe-Nal-Arg-Arg-Arg-Arg-Dap)]-Lys] (P[Sar][dD][Pip][2Nal]RR[dA][Dap]F[2Nal]RRRR[Dap]K-NH2; linker N-9-16 via Trimesoyl; C-terminus assumed): 720 ± 90 nM.
The same measure, in the same setting: next, `C[C@@H]1NC(=O)[C@H](CCCNC(=N)N)NC(=O)[C@H](Cc2ccc3ccccc3c2)NC(=O)[C@@H]2CCCCN2C(=O)[C@@H]([C@H](C)O)NC(=O)[C@H](Cc2ccc(Br)cc2)NC(=O)[C@@H](Cc2ccccc2)NC(=O)c2cc3cc(c2)C(=O)NC[C@H](NC(=O)[C@@H](Cc2ccccc2)NC1=O)C(=O)N[C@@H](Cc1ccccc1)C(=O)N[C@@H](Cc1ccc2ccccc2c1)C(=O)N[C@@H](CCCNC(=N)N)C(=O)N[C@@H](CCCNC(=N)N)C(=O)N[C@@H](CCCNC(=N)N)C(=O)N[C@@H](CCCNC(=N)N)C(=O)N[C@H](C(=O)N[C@@H](CCCCN)C(N)=O)CNC3=O` [Peptide 32, bicyclo[Tm-(D-Phe-4-BrPhe-D-Thr-Pip-Nal-Arg-Ala-D-Phe)-Dap-(Phe-Nal-Arg-Arg-Arg-Arg-Dap)]-Lys] ([dF][Phe(4-Br)][dT][Pip][2Nal]RA[dF][Dap]F[2Nal]RRRR[Dap]K-NH2; linker N-9-16 via Trimesoyl; C-terminus assumed): 1780 ± 420 nM; `C[C@@H]1NC(=O)[C@H](CCCNC(=N)N)NC(=O)[C@H](Cc2ccc3ccccc3c2)NC(=O)[C@@H]2CCCCN2C(=O)[C@@H]([C@H](C)O)NC(=O)[C@H](Cc2ccc(F)cc2)NC(=O)[C@@H](Cc2ccccc2)NC(=O)c2cc3cc(c2)C(=O)NC[C@H](NC(=O)[C@@H](Cc2ccccc2)NC1=O)C(=O)N[C@@H](CCCNC(=N)N)C(=O)N[C@@H](CCCNC(=N)N)C(=O)N[C@@H](CCCNC(=N)N)C(=O)N[C@@H](CCCNC(=N)N)C(=O)N[C@@H](Cc1ccc2ccccc2c1)C(=O)N[C@@H](Cc1ccccc1)C(=O)N[C@H](C(=O)N[C@@H](CCCCN)C(N)=O)CNC3=O` [Peptide 42, bicyclo[Tm-(D-Phe-Fpa-D-Thr-Pip-Nal-Arg-Ala-D-Phe)-Dap-(Arg-Arg-Arg-Arg-Nal-Phe-Dap)]-Lys] ([dF][Phe(4-F)][dT][Pip][2Nal]RA[dF][Dap]RRRR[2Nal]F[Dap]K-NH2; linker N-9-16 via Trimesoyl; C-terminus assumed): 980 ± 180 nM; “bicyclo[Tm-(D-4-Phe-Fpa-D-homoGlu-Pip-Nal-Arg-Ala-D-Phe)-Dap-(Phe-Nal-Arg-Arg-Arg-Arg-Dap)]-Lys [Peptide 41]”: 870 ± 80 nM.
The same measure, in the same setting: next, `C[C@@H]1NC(=O)[C@H](CCCNC(=N)N)NC(=O)[C@H](Cc2ccc3ccccc3c2)NC(=O)[C@@H]2CCCCN2C(=O)[C@@H]([C@H](C)O)NC(=O)[C@H](Cc2ccc(F)cc2)NC(=O)[C@@H](Cc2ccccc2)NC(=O)c2cc3cc(c2)C(=O)NC[C@H](NC(=O)[C@@H](Cc2ccccc2)NC1=O)C(=O)N[C@@H](CCCNC(=N)N)C(=O)N[C@@H](CCCNC(=N)N)C(=O)N[C@@H](Cc1ccc2ccccc2c1)C(=O)N[C@@H](Cc1ccccc1)C(=O)N[C@@H](CCCNC(=N)N)C(=O)N[C@@H](CCCNC(=N)N)C(=O)N[C@H](C(=O)N[C@@H](CCCCN)C(N)=O)CNC3=O` [Peptide 43, bicyclo[Tm-(D-Phe-Fpa-D-Thr-Pip-Nal-Arg-Ala-D-Phe)-Dap-(Arg-Arg-Nal-Phe-Arg-Arg-Dap)]-Lys] ([dF][Phe(4-F)][dT][Pip][2Nal]RA[dF][Dap]RR[2Nal]FRR[Dap]K-NH2; linker N-9-16 via Trimesoyl; C-terminus assumed): 1380 ± 160 nM; `C[C@@H]1NC(=O)[C@H](CCCNC(=N)N)NC(=O)[C@H](Cc2ccc3ccccc3c2)NC(=O)[C@@H]2CCCCN2C(=O)[C@@H]([C@H](C)O)NC(=O)[C@H](Cc2ccc(F)c(F)c2)NC(=O)[C@@H](Cc2ccccc2)NC(=O)c2cc3cc(c2)C(=O)NC[C@H](NC(=O)[C@@H](Cc2ccccc2)NC1=O)C(=O)N[C@@H](Cc1ccccc1)C(=O)N[C@@H](Cc1ccc2ccccc2c1)C(=O)N[C@@H](CCCNC(=N)N)C(=O)N[C@@H](CCCNC(=N)N)C(=O)N[C@@H](CCCNC(=N)N)C(=O)N[C@@H](CCCNC(=N)N)C(=O)N[C@H](C(=O)N[C@@H](CCCCN)C(N)=O)CNC3=O` [Peptide 29, bicyclo[Tm-(D-Phe-3,4-diFPhe-D-Thr-Pip-Nal-Arg-Ala-D-Phe)-Dap-(Phe-Nal-Arg-Arg-Arg-Arg-Dap)]-Lys] ([dF][Phe(3,4-F2)][dT][Pip][2Nal]RA[dF][Dap]F[2Nal]RRRR[Dap]K-NH2; linker N-9-16 via Trimesoyl; C-terminus assumed): 410 ± 100 nM.

Values taken from US10815276B2, “Cell penetrating peptides and methods of making and using thereof” (Entrada Therapeutics, Inc., priority 2014, dated 2020).
